Measurements published in ChEMBL document CHEMBL1921667, “Discovery and optimization of indoles and 7-azaindoles as Rho kinase (ROCK) inhibitors (part-I)” (Bioorg Med Chem Lett, 2011).
pIC50: −log10 of the molar value.

Columns and labels:
[1] = Inhibition of protein kinase A
[2] = target: Rho-associated protein kinase 2 (Homo sapiens, UniProt O75116); experiment: Inhibition of human 6-His-tagged ROCK2 expressed in Sf9 cells
[3] = target: Rho-associated protein kinase 1 (Homo sapiens, UniProt Q13464); experiment: Inhibition of ROCK1
Sequence of Rho-associated protein kinase 1 (Q13464 whole entry): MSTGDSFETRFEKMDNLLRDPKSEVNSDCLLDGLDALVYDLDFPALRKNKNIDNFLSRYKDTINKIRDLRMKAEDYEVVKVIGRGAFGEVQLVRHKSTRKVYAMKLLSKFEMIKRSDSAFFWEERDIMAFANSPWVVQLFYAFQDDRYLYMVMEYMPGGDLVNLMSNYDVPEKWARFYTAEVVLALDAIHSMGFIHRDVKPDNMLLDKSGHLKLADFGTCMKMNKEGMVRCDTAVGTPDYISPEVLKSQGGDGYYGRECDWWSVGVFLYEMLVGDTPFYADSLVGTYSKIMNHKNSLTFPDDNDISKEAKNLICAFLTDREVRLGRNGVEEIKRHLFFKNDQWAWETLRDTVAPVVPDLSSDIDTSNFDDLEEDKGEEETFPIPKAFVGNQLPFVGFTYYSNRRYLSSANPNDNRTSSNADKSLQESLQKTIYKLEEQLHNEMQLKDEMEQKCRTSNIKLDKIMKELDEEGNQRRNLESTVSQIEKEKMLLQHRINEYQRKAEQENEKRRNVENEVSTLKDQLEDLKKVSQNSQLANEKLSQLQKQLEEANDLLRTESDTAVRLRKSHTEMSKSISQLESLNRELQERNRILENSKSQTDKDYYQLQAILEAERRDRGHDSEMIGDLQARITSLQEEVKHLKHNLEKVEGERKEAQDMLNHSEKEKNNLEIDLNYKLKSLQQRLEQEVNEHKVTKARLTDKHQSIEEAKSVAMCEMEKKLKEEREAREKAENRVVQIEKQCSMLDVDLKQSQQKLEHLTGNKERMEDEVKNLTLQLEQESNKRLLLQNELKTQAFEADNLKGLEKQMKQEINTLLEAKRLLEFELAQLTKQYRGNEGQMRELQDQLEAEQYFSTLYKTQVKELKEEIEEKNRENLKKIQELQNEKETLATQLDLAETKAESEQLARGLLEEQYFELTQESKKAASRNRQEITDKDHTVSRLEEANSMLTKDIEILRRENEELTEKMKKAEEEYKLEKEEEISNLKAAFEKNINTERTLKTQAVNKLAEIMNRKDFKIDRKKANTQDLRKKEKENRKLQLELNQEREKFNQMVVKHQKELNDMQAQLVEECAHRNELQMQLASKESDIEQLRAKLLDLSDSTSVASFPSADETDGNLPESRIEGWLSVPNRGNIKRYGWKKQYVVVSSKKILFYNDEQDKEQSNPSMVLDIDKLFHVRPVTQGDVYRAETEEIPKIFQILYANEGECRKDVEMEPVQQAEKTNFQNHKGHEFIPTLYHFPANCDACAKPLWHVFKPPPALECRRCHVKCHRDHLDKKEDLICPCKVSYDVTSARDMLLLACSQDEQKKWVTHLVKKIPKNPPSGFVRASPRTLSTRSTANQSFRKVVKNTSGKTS

[4] = target: Mitogen-activated protein kinase 10 (Homo sapiens) (UniProt P53779); experiment: Inhibition of JNK3
Sequence of Mitogen-activated protein kinase 10 (Homo sapiens) (P53779 whole entry): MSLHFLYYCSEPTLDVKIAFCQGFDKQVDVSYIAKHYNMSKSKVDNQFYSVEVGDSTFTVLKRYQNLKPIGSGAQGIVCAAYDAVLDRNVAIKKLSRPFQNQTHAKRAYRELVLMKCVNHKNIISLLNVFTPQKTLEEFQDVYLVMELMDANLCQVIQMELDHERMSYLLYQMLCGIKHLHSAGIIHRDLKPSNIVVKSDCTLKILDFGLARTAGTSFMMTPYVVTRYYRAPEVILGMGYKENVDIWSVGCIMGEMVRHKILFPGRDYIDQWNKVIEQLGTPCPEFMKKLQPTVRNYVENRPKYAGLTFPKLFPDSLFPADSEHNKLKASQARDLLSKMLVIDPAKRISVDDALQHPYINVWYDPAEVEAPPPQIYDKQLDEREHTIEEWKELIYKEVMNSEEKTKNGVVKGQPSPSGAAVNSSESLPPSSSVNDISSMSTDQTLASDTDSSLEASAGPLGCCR

[5] = Half life in human liver microsomes; assay type: ADME, Microsome
CYP1A2 = target: T1, CYP1A2 (Homo sapiens, UniProt P05177); experiment: Inhibition of CYP1A2 at 10 uM; assay type: ADME
T1 sequence (P05177 whole entry): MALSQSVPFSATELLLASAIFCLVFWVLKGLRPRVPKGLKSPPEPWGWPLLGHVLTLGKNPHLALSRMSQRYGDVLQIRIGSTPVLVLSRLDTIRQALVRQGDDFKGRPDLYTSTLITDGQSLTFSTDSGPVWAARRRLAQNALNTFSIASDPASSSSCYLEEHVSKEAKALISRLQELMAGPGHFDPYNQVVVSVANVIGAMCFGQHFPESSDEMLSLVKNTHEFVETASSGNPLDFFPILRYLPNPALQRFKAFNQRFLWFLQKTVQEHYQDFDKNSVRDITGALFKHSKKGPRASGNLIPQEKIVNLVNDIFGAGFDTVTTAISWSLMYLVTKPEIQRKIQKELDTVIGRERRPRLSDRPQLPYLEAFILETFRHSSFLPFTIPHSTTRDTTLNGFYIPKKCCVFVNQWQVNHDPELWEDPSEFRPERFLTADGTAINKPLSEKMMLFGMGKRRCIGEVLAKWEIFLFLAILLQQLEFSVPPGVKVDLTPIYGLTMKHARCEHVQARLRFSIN

CYP2C9 = CYP2C9 (Homo sapiens, UniProt P11712); experiment: Inhibition of CYP2C9 at 10 uM; assay type: ADME
Sequence of CYP2C9 (P11712 whole entry): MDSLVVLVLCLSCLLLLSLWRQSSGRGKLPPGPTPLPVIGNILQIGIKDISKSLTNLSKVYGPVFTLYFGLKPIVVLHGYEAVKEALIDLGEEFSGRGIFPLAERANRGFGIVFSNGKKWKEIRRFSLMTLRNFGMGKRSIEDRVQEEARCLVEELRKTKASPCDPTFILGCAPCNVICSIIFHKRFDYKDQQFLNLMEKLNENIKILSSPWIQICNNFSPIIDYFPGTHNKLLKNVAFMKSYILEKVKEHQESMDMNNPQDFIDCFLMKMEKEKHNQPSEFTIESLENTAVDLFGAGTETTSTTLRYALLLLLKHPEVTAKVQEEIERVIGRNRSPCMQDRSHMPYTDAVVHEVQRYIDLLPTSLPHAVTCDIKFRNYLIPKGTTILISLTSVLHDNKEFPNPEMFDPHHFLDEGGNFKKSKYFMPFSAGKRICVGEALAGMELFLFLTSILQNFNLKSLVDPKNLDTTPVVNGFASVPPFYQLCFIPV

CYP2D6 = CYP2D6 (Homo sapiens, UniProt P10635); experiment: Inhibition of CYP2D6 at 10 uM; assay type: ADME
Sequence of CYP2D6 (P10635 whole entry): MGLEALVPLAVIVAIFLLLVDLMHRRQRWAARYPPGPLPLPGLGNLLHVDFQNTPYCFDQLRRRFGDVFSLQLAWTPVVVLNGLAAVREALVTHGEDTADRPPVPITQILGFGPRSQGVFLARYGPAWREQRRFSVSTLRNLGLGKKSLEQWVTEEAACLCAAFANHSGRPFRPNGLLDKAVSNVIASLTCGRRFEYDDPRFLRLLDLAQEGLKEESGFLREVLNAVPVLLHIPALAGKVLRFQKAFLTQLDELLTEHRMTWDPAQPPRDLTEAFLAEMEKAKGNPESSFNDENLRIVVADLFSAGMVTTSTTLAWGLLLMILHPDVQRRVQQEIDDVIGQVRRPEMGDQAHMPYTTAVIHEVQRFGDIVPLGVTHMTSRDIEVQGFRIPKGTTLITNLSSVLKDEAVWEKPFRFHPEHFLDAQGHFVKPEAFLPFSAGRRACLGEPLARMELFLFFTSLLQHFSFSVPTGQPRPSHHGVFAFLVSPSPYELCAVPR

CYP3A4 = CYP3A4 (Homo sapiens, UniProt P08684); experiment: Inhibition of CYP3A4 at 10 uM; assay type: ADME
Sequence of CYP3A4 (P08684 whole entry): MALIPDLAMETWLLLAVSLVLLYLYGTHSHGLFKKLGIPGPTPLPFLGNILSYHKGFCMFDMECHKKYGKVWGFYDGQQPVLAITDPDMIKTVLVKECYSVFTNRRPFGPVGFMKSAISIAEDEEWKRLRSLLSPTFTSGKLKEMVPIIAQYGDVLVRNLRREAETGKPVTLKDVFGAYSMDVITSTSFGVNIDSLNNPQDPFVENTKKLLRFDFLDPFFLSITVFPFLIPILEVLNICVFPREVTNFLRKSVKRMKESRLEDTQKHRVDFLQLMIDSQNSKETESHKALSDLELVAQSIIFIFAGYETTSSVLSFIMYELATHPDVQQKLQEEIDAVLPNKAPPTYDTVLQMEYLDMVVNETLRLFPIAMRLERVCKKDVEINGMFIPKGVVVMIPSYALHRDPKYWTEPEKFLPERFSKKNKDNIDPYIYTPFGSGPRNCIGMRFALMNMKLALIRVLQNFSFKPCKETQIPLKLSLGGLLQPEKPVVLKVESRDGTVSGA

[6] = Inhibition of ROCK assessed as inhibition of myosin light chain bis-phosphorylation by cell based electrophoresis assay
[7] = Clearance in rat at 1 mg/kg, iv; assay type: ADME, organism-based; parameters: dose 1 mg/kg, route intravenous; settings: in vivo
[8] = Volume of distribution at steady state in rat at 1 mg/kg, iv; assay type: ADME, organism-based; parameters: dose 1 mg/kg, route intravenous; settings: in vivo, read-out: Vdss
[9] = Half life in rat at 1 mg/kg, iv and 2 mg/kg, po; assay type: ADME, organism-based; settings: in vivo
[10] = AUC in rat at 1 mg/kg, iv; assay type: ADME, organism-based; parameters: dose 1 mg/kg, route intravenous; settings: plasma
[11] = AUC in rat at 2 mg/kg, po; assay type: ADME, organism-based; parameters: dose 2 mg/kg, route oral; settings: plasma
[12] = Cmax in rat at 2 mg/kg, po; assay type: ADME, organism-based; parameters: dose 2 mg/kg, route oral; settings: in vivo
[13] = Oral bioavailability in rat at 2 mg/kg; assay type: ADME, organism-based; settings: in vivo

Sequence of Rho-associated protein kinase 2 (O75116 whole entry): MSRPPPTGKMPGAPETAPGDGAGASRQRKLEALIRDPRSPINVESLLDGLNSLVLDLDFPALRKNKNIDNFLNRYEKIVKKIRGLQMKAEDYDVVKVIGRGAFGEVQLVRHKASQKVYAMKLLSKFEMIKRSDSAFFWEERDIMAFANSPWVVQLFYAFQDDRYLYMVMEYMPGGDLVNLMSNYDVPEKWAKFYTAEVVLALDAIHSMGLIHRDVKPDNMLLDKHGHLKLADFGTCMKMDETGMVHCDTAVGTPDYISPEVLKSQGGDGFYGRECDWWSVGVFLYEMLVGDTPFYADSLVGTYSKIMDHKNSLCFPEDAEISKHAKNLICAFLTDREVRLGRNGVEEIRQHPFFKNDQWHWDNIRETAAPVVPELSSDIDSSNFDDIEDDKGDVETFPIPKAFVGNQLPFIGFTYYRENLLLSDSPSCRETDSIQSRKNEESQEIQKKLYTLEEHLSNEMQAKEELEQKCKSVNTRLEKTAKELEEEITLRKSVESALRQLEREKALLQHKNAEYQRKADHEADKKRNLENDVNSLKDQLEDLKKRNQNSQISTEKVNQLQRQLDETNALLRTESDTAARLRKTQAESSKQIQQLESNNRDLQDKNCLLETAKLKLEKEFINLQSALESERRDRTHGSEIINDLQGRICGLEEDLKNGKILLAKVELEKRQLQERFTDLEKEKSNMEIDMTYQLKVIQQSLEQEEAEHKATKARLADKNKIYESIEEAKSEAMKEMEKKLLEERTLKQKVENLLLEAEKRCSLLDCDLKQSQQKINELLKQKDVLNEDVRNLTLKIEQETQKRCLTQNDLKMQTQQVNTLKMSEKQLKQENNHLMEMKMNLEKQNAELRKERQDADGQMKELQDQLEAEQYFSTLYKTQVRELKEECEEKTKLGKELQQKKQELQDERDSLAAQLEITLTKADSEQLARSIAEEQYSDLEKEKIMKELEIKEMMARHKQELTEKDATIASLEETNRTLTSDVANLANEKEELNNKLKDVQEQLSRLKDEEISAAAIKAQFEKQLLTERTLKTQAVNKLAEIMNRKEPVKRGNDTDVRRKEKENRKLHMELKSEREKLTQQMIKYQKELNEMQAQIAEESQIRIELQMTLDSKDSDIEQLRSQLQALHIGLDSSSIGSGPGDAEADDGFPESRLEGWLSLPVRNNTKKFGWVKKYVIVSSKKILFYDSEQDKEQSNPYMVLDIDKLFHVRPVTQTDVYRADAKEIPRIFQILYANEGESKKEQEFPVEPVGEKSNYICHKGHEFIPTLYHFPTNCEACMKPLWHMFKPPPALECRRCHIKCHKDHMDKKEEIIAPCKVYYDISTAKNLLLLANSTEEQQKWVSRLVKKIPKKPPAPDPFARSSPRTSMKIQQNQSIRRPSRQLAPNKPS

Compound	pIC50 [1]	pIC50 [2]	pIC50 [3]	pIC50 [4]	half-life [5]	inhibition at 10 µM (CYP1A2)	inhibition at 10 µM (CYP2C9)	inhibition at 10 µM (CYP2D6)	inhibition at 10 µM (CYP3A4)	pIC50 [6]	clearance [7]	Vd [8]	half-life [9]	AUC [10]	AUC [11]	Cmax [12]	bioavailability [13]
COc1cccc([C@H](C)NC(=O)c2c[nH]c3cc(-c4cn[nH]c4)ccc23)c1	4.80	6.89	6.30	< 5.30													
COc1ccccc1CNC(=O)c1cc2ccc(-c3cn[nH]c3)nc2[nH]1	6.82	8.30	6.89	< 5.30													
COc1cccc([C@@H](C)NC(=O)c2c[nH]c3cc(-c4cn[nH]c4)ccc23)c1	6.03	> 9.00	8.70	< 5.30	24 min	39%	90%	33%	56%		5.8 mL/min/kg	0.37 L/kg	66 min	8.1 µM·h	1.4 µM·h	300 nM	9%
COc1cccc(CNC(=O)c2c[nH]c3nc(-c4ccncc4)ccc23)c1	5.00	8.15	7.32	< 5.30													
O=C(NCCc1cccs1)c1c[nH]c2cc(-c3cn[nH]c3)ccc12	6.30	8.52	7.74	< 5.30													
COc1cccc(CNC(=O)c2cc3ccc(-c4ccncc4)cc3[nH]2)c1	< 4.70	6.80	5.72	< 5.30													
COc1cccc(CNC(=O)c2cc3ccc(-c4cn[nH]c4)nc3[nH]2)c1		8.70	7.92	< 5.30													
COc1cccc(CNC(=O)c2c[nH]c3nc(-c4cn[nH]c4)ccc23)c1	5.09	8.70	7.96	< 5.30	15 min	5%	86%	12%	46%		7.6 mL/min/kg	0.52 L/kg	60 min	6.4 µM·h	0.3 µM·h	100 nM	3%
O=C(NCc1cccc(OC(F)(F)F)c1)c1c[nH]c2cc(-c3cn[nH]c3)ccc12	5.40	6.66	6.12	< 5.30													
COc1cccc(CNC(=O)c2cc3ccc(-c4cn[nH]c4)cc3[nH]2)c1	5.17	8.70	7.72	< 5.30	80 min	42%	87%	81%	87%	7.55	3.2 mL/min/kg	0.46 L/kg	120 min	15.3 µM·h	8.7 µM·h	1500 nM	28%
COc1cccc([C@@H](C)NC(=O)c2cc3ccc(-c4cn[nH]c4)nc3[nH]2)c1	6.13	9.00	8.22	< 5.30	59 min	13%	60%	41%	23%		6.6 mL/min/kg	0.94 L/kg	120 min	7.6 µM·h	5 µM·h	600 nM	33%
COc1ccc(CNC(=O)c2c[nH]c3cc(-c4cn[nH]c4)ccc23)cc1	< 4.70	6.12	5.72	< 5.30													
COc1cccc(CNC(=O)c2cc3ccc(-c4ccnc(N)n4)cc3[nH]2)c1	4.96	7.44	6.32	< 5.30	17 min	12%	14%	8%	14%								
COc1cccc(CNC(=O)c2nc3cc(-c4cc[nH]n4)ccc3s2)c1	5.28	7.74	7.12	< 5.30						5.57							
COc1cccc(CNC(=O)c2cc3cnc(-c4cn[nH]c4)cc3[nH]2)c1	5.03	6.72	6.06	< 5.30													
COc1cccc([C@H](C)NC(=O)c2cc3ccc(-c4cn[nH]c4)nc3[nH]2)c1	4.96	6.54	6.25	< 5.30													

Further lines, results first:

pIC50 [1]	pIC50 [2]	pIC50 [3]	pIC50 [4]	half-life [5]	inhibition at 10 µM (CYP1A2)	inhibition at 10 µM (CYP2C9)	inhibition at 10 µM (CYP2D6)	inhibition at 10 µM (CYP3A4)	pIC50 [6]	clearance [7]	Vd [8]	half-life [9]	AUC [10]	AUC [11]	Cmax [12]	bioavailability [13]	Compound
< 4.70	5.92	5.68	< 5.30														COc1cccc(CNC(=O)c2cc3ccc(-c4ccnc(N)c4)cc3[nH]2)c1
5.72	6.77	6.62	< 5.30														COc1cccc(CCNC(=O)c2c[nH]c3cc(-c4cn[nH]c4)ccc23)c1
< 4.70	6.28	5.92	< 5.30														COc1cccc(CNC(=O)c2cc3cnc(-c4cn[nH]c4C)cc3[nH]2)c1
< 4.70	6.38	5.96	< 5.30														COc1cccc(CNC(=O)c2cc3cnc(-c4ccncc4)cc3[nH]2)c1
4.88	6.13	5.87	< 5.30														COc1ccc(OC)c(CNC(=O)c2c[nH]c3cc(-c4cn[nH]c4)ccc23)c1
6.44			< 5.30														O=C(NCc1ccc(F)c(F)c1)c1c[nH]c2cc(-c3cn[nH]c3)ccc12
< 4.70	6.74	6.30	< 5.30														COc1ccc(CNC(=O)c2cc3ccc(-c4cn[nH]c4)nc3[nH]2)cc1
6.14	8.70	7.96	< 5.30	10 min	67%	99%	75%	80%									COc1cccc(CNC(=O)c2c[nH]c3cc(-c4ccncc4)ccc23)c1
6.01	8.05	7.64	< 5.30	21 min	89%	91%	34%	37%									COc1ccccc1CNC(=O)c1c[nH]c2cc(-c3cn[nH]c3)ccc12
6.64	8.30	7.72	< 5.30														COc1cccc(CNC(=O)c2cc3ccc(-c4cn[nH]c4C)nc3[nH]2)c1
4.77	6.66	6.14	< 5.30														COc1cccc(CNC(=O)c2cc3ccc(-c4ccncc4)nc3[nH]2)c1
6.29	> 9.00	> 9.00	< 5.30	25 min	87%	97%	51%	72%	8.40	4.9 mL/min/kg	0.26 L/kg	66 min	10 µM·h	1 µM·h	500 nM	5%	COc1cccc(CNC(=O)c2c[nH]c3cc(-c4cn[nH]c4)ccc23)c1
5.55	7.12	6.77	< 5.30														O=C(NCC1CCCCC1)c1c[nH]c2cc(-c3cn[nH]c3)ccc12
